The results in this text go back to patent US20210115044A1, “TRICYCLIC HETEROCYCLE COMPOUNDS USEFUL AS HIV INTEGRASE INHIBITORS” (Merck Sharp & Dohme Corp., priority 2018, published 2021).

The test system of the assay is HIV-1 (H9/IIIB strain). As to the kind of experiment: Multiple round HIV-1 infection assay in MT4-GFP cells (wild type cell assay, Viking). It counts as cell-based. Particulars: MT4-GFP cells infected with HIV-1 H9/IIIB, inhibition of reproductive ratio R0, ~48 h and ~72 h post-infection. The procedure: The antiviral activity of the Examples herein was assessed in an assay that measures the rate of replication of HIV in cell culture, and performed according to the following procedure. HIV-1 replication was monitored using MT4-gag-GFP clone D3 (hereafter designated MT4-GFP), which are MT-4 cells modified to harbor a GFP reporter gene, the expression of which is dependent on the HIV-1 expressed proteins tat and rev. Productive infection of an MT4-GFP cell with HIV-1 results in GFP expression approximately 24 h post-infection. MT4-GFP cells were maintained at 37° C./5% CO2/90% relative humidity in RPMI 1640 supplemented with 10% fetal bovine serum, 100 U/ml penicillin/streptomycin, and 400 μg/ml G418 to maintain the reporter gene. For infections, MT4-GFP cells were placed in the same medium lacking G418 and infected overnight with HIV-1 (H9/IIIB strain) virus at an approximate multiplicity of infection of 0.01 in the same incubation conditions. Cells were then washed and re-suspended in either RPMI 1640 at 2×10^5 cells/mL (0% NHS condition) or 100% normal human serum (NHS) at 2×10^5 cells/mL (100% NHS condition). Compound plates were prepared by dispensing compounds dissolved in DMSO into wells of 384 well poly-D-lysine-coated plates (0.2 μl/well) using an ECHO acoustic dispenser. Each compound was tested in a 10-point serial 3-fold dilution (typical final concentrations: 1050 nM-0.05 nM for 0% NHS condition or 42 μM-2.13 nM for 100% NHS condition). Controls included no inhibitor (DMSO only) and a combination of three antiviral agents (efavirenz, indinavir, an in-house integrase strand transfer inhibitor at final concentrations of 4 μM each). Cells were added ([…]) to compound plates and the infected cells were maintained at 37° C./5% CO2/90% relative humidity.
Infected cells were quantified at two time points, ˜48 h and ˜72 h post-infection, by counting the number of green cells in each well using an Acumen eX3 scanner. The increase in the number of green cells over ˜24 h period gives the reproductive ratio, R0, which is typically 5-15 and has been shown experimentally to be in logarithmic phase (data not shown). Inhibition of R0 is calculated for each well, and IC50s determined by non-linear 4-parameter curve fitting.

Where [1] appears, read: 0% NHS condition (RPMI 1640), read-out: WILD TYPE CELL ASSAY Viking IP (0% NHS).
Where [2] appears, read: 100% normal human serum condition, read-out: WILD TYPE CELL ASSAY Viking IP (100% NHS).
Where [3] appears, read: Human immunodeficiency virus 1, IIIB, 0% NHS condition (RPMI 1640), read-out: WILD TYPE CELL ASSAY Viking IP (0% NHS).
[4] abbreviates: Human immunodeficiency virus 1, IIIB, 100% normal human serum condition, read-out: WILD TYPE CELL ASSAY Viking IP (100% NHS).

Molecules are shown by their SMILES. Where two headings read alike, the source gives them in different places.

Take `CC1N(C)C(=O)c2c(O)c(=O)c(C(=O)NCc3ccc(F)cc3F)c3n2C1(C)CC3O` (single isomer, unassigned) [Compound 70]: the IC50 under setting [1] was determined as 1.2 nM and the IC50 under setting [2] was determined as 26.3 nM.

As to `CC1N(C)C(=O)c2c(O)c(=O)c(C(=O)NCc3ccc(F)cc3F)c3n2C1(C)CC3O` (single isomer, unassigned) [Compound 71], the IC50 was found to be 3.1 nM under setting [1] and 91.1 nM under setting [2].

Take `CC1N(C)C(=O)c2c(O)c(=O)c(C(=O)NCc3ccc(F)cc3F)c3n2C1(C)CC3O` (single isomer, unassigned) [Compound 72]: the IC50 worked out at 1.3 nM under setting [1] and 15.8 nM under setting [2].

In the case of `CC1C(O)c2c(C(=O)NCc3ccc(F)cc3F)c(=O)c(O)c3n2C1(C)CN(C)C3=O` (single isomer, unassigned) [Compound 73], the IC50 reads like this: under setting [1], 2.3 nM; under setting [2], 387 nM.

As for `CC1C(O)c2c(C(=O)NCc3ccc(F)cc3F)c(=O)c(O)c3n2C1(C)CN(C)C3=O` (single isomer, unassigned) [Compound 74], the IC50 by setting is: under setting [1], 1.6 nM; under setting [2], 38.4 nM.

With `CC1C(O)c2c(C(=O)NCc3ccc(F)cc3F)c(=O)c(O)c3n2C1(C)CN(C)C3=O` (single isomer, unassigned) [Compound 75], the IC50 was determined as 2.5 nM under setting [1] and 172 nM under setting [2].

Regarding `CC1C(O)c2c(C(=O)NCc3ccc(F)cc3F)c(=O)c(O)c3n2C1(C)CN(C)C3=O` (single isomer, unassigned) [Compound 76], the IC50 by setting is: under setting [1], 2.5 nM; under setting [2], 237 nM.

As for `CC1C(O)c2c(C(=O)NCc3ccc(F)cc3F)c(=O)c(O)c3n2C1(C)CN(C)C3=O` (single isomer, unassigned) [Compound 77], the IC50 came to 3.3 nM under setting [1] and 4470 nM under setting [2].

Turning to `CC1C(O)c2c(C(=O)NCc3ccc(F)cc3F)c(=O)c(O)c3n2C1(C)CN(C)C3=O` (single isomer, unassigned) [Compound 78], the IC50 by setting is: under setting [1], 3.2 nM; under setting [2], 383 nM.

Regarding `CC1C(O)c2c(C(=O)NCc3ccc(F)cc3F)c(=O)c(O)c3n2C1(C)CN(C)C3=O` (single isomer, unassigned) [Compound 79], the IC50 runs as follows: under setting [1], 4.5 nM; under setting [2], 942 nM.

Take `CC1C(O)c2c(C(=O)NCc3ccc(F)cc3F)c(=O)c(O)c3n2C1(C)CN(C)C3=O` (single isomer, unassigned) [Compound 80]: the IC50 was 2.8 nM under setting [1] and 192 nM under setting [2].

As to `CN1CC2(C)CC(O)c3c(C(=O)NCc4ccc(F)cc4)c(=O)c(O)c(n32)C1=O` (stereo not drawn) [Compound 23], the IC50 was 1.9 nM under setting [3] and 121 nM under setting [4].

Consider `CN1CC2(C)CC(O)c3c(C(=O)NCc4ccc(F)cc4)c(=O)c(O)c(n32)C1=O` (stereo not drawn) [Compound 24], for which the IC50 by setting is: under setting [1], 1.2 nM; under setting [2], 201 nM.

As for `CN1CC2(C)CC(O)c3c(C(=O)NCc4c(F)cc(F)cc4F)c(=O)c(O)c(n32)C1=O` (stereo not drawn) [Compound 27], the IC50 under setting [1] was found to be 2.1 nM and the IC50 under setting [2] came to 29 nM.

For the compound `CN1CC2(C)CC(O)c3c(C(=O)NCc4c(F)cc(F)cc4F)c(=O)c(O)c(n32)C1=O` (stereo not drawn) [Compound 28], the IC50 under setting [1] was determined as 1 nM and the IC50 under setting [2] was determined as 129 nM.

Take `CN1CC2(C)CC(O)c3c(C(=O)NCc4c(F)ccc(Cl)c4F)c(=O)c(O)c(n32)C1=O` (stereo not drawn) [Compound 31]: the IC50 is, setting by setting: under setting [3], 1.7 nM; under setting [2], 268 nM.

Regarding `CN1CC2(C)CC(O)c3c(C(=O)NCc4c(F)ccc(Cl)c4F)c(=O)c(O)c(n32)C1=O` (stereo not drawn) [Compound 32], the IC50 runs as follows: under setting [1], 2.1 nM; under setting [2], 55.7 nM.

With `CN1CC2(C)CC(O)c3c(C(=O)NCc4cccc(Cl)c4F)c(=O)c(O)c(n32)C1=O` (stereo not drawn) [Compound 35], the IC50 by setting is: under setting [3], 2.1 nM; under setting [4], 116 nM.

Consider `CN1CC2(C)CC(O)c3c(C(=O)NCc4cccc(Cl)c4F)c(=O)c(O)c(n32)C1=O` (stereo not drawn) [Compound 36], for which the IC50 under setting [1] was 2.1 nM and the IC50 under setting [2] worked out at 59.9 nM.

For the compound `CCC12CC(O)c3c(C(=O)NCc4c(F)cc(F)cc4F)c(=O)c(O)c(n31)C(=O)N(C)C2` (stereo not drawn) [Compound 47], the IC50 under setting [3] amounted to 2.3 nM and the IC50 under setting [2] turned out to be 1460 nM.

As for `CCC12CC(O)c3c(C(=O)NCc4c(F)cc(F)cc4F)c(=O)c(O)c(n31)C(=O)N(C)C2` (stereo not drawn) [Compound 48], the IC50 under setting [1] is 2.1 nM and the IC50 under setting [2] amounted to 261 nM.

On to `CCC12CC(O)c3c(C(=O)NCc4c(F)ccc(F)c4F)c(=O)c(O)c(n31)C(=O)N(C)C2` (stereo not drawn) [Compound 51], for which the IC50 was determined as 1.7 nM under setting [3] and 32.2 nM under setting [2].

As for `CCC12CC(O)c3c(C(=O)NCc4c(F)ccc(F)c4F)c(=O)c(O)c(n31)C(=O)N(C)C2` (stereo not drawn) [Compound 52], the IC50 runs as follows: under setting [1], 2.7 nM; under setting [2], 150 nM.

Take `CCC12CC(O)c3c(C(=O)NCc4c(F)ccc(Cl)c4F)c(=O)c(O)c(n31)C(=O)N(C)C2` (stereo not drawn) [Compound 55]: the IC50 under setting [3] turned out to be 2.2 nM and the IC50 under setting [2] stood at 93.6 nM.

`CCC12CC(O)c3c(C(=O)NCc4c(F)ccc(Cl)c4F)c(=O)c(O)c(n31)C(=O)N(C)C2` (stereo not drawn) [Compound 56]: the IC50 under setting [1] was determined as 3.4 nM and the IC50 under setting [2] was 891 nM.

As for `CCN1CC2(COC)CC(O)c3c(C(=O)NCc4c(F)cc(F)cc4F)c(=O)c(O)c(n32)C1=O` (stereo not drawn) [Compound 63], the IC50 under setting [3] was determined as 2.9 nM and the IC50 under setting [2] was determined as 9300 nM.

Consider `CCN1CC2(COC)CC(O)c3c(C(=O)NCc4c(F)cc(F)cc4F)c(=O)c(O)c(n32)C1=O` (stereo not drawn) [Compound 64], for which the IC50 is, setting by setting: under setting [1], 2.9 nM; under setting [2], 2740 nM.
